# Assay results: patent US20230322756A1, “FUSED IMIDAZOLE DERIVATIVE, PREPARATION METHOD THEREFOR, AND MEDICAL USE THEREOF” (JIANGSU HENGRUI MEDICINE CO., LTD., priority 2020, published 2023)
# Target: GLP-1 receptor (Homo sapiens (Human), UniProt P43220)
# Assay: Agonist activity against GLP-1 receptor, CRE-luciferase reporter (ONE-Glo) in CHO-K1/CRE-luc/GLP-1 receptor cells
# Assay type: cell-based
# Details: 6 h incubation
# Description: This experiment was intended to test the agonist activity of the compound molecules against the GLP-1 receptor and evaluate the in vitro activity of the molecules according to EC50. The experiment adopted a ONE-Glo™ Luciferase Assay System (Promega, E6110). Under the action of compound molecules, GLP-1R downstream signaling pathways were activated to cause elevated cAMP level. The combination of cAMP and CRE could start the transcription expression of CRE downstream luciferase genes, the luciferase could emit fluorescence when reacting with substrates thereof, and the activity of the compound for agonizing GLP-1 receptors was reflected by measuring fluorescence signals through a ONE-Glo™ reagent.
# Stably-expressed CHO-K1/CRE-luc/GLP-1 receptor cell strains (self-construction of GLP-1 receptor plasmid; CRE-luc plasmid Promega E8471) were constructed. CHO-K1/CRE-luc/GLP-1 receptor cells were digested, and resuspended after centrifugation. […] The plate was incubated in an incubator for 16 h (37° C., 5% CO2).
# The compound was dissolved in DMSO to prepare a stock solution with an initial concentration of 20 mM. The starting concentration of the small molecule compound was 0.2 mM, and the compound underwent 3-fold serial dilution for a total of 10 concentration points, with DMSO at the 11th point. To another 96-well plate was added 95 μL of cell culture medium (DME/F-12+10% FBS), 5 μL of test samples with different concentrations were added to each well, followed by uniform mixing, and then 10 μL of test samples with different concentrations were added to each well, with two duplicate wells set for each sample. The plate was incubated in an incubator for 6 h (37° C., 5% CO2). The 96-well cell culture plate was taken out, and 100 μL of ONE-Glo™ reagent was added to each well, followed by incubation at room temperature for 10 min. The plate was placed in a microplate reader (EnVision 2105, PE) for determination of chemiluminescence.
# Data were processed and analyzed using Microsoft Excel and Graphpad Prism 5.
# GLP-1 receptor, sequence (P43220 24-463): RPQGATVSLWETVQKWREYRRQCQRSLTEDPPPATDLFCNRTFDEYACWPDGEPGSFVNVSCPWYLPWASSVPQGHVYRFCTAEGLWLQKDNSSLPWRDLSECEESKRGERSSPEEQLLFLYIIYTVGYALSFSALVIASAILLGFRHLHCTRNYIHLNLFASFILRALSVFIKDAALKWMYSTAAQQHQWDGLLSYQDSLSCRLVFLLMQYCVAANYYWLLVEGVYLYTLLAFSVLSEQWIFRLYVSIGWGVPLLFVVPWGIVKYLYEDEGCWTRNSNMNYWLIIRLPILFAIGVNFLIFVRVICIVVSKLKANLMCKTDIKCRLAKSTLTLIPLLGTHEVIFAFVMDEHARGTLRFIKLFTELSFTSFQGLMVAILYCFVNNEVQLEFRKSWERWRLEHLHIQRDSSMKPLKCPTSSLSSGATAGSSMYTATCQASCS
compound,measurement,value
"O=C(O)c1ccc2nc(CN3CCC(c4cccc5c4O[C@@H](c4ccc(Cl)cc4F)CO5)CC3)n(C[C@@H]3CCO3)c2n1 [Example 5, 2-((4-((S)-3-(4-Chloro-2-fluorophenyl)-2,3-dihydrobenzo[b][1,4]dioxan-5-yl)piperidin-1-yl)methyl)-3-((S)-oxetan-2-ylmethyl)-3H-imidazo[4,5-b]pyridine-5-carboxylic acid]",EC50,0.12 nM
same,Emax,107%
